The source made the active and inactive calls.
Key:
Bcl-2-like protein 10 = biological target: T1, Bcl-2-like protein 10 (Homo sapiens, UniProt Q9HD36); assay: displacers of TR3 peptide from Bcl-B, primary screen, selectivity assay for Bfl-1 inhibitor project, biochemical, fluorescence polarization, FITC-TR3 peptide (AID 748);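 note: fluorescence polarization from a fluorescein-labelled TR3 peptide binding purified Bcl-B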
T1 sequence (Q9HD36 whole entry): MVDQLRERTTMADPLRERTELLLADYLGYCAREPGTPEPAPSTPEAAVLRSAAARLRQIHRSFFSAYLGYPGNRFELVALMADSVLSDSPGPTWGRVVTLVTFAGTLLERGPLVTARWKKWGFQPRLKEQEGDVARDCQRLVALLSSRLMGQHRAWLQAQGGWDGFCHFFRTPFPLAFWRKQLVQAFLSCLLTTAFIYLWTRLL

[1] = biological target: Acyl-homoserine lactone acylase PvdQ (Pseudomonas aeruginosa (strain LESB58), UniProt Q9I194); assay: P. aeruginosa PvdQ acylase inhibitors, dose response, biochemical, fluorescence, plate reader and imaging, cherry-picks (AID 493231)
[2] = biological target: Nucleotide-binding oligomerization domain-containing protein 2 (Homo sapiens, UniProt Q9HC29); assay: PubChem AID 2334; type: functional
HEK293 = assay: cells; conditions: Homo sapiens;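 note: cells exposed to compound for 14 hours overnight before viability readout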
Tumor necrosis factor = Tumor necrosis factor (Homo sapiens, UniProt P01375); assay: TNFa-triggered NF-kB activation inhibitors, SAR follow-up, cell-based, revised (AID 2337); type: functional
[3] = biological target: T2, Nucleotide-binding oligomerization domain-containing protein 1 (Homo sapiens, UniProt Q9Y239); assay: NOD1 signaling inhibitors, SAR follow-up, revised (AID 2333); type: functional
T2 sequence (Q9Y239 whole entry): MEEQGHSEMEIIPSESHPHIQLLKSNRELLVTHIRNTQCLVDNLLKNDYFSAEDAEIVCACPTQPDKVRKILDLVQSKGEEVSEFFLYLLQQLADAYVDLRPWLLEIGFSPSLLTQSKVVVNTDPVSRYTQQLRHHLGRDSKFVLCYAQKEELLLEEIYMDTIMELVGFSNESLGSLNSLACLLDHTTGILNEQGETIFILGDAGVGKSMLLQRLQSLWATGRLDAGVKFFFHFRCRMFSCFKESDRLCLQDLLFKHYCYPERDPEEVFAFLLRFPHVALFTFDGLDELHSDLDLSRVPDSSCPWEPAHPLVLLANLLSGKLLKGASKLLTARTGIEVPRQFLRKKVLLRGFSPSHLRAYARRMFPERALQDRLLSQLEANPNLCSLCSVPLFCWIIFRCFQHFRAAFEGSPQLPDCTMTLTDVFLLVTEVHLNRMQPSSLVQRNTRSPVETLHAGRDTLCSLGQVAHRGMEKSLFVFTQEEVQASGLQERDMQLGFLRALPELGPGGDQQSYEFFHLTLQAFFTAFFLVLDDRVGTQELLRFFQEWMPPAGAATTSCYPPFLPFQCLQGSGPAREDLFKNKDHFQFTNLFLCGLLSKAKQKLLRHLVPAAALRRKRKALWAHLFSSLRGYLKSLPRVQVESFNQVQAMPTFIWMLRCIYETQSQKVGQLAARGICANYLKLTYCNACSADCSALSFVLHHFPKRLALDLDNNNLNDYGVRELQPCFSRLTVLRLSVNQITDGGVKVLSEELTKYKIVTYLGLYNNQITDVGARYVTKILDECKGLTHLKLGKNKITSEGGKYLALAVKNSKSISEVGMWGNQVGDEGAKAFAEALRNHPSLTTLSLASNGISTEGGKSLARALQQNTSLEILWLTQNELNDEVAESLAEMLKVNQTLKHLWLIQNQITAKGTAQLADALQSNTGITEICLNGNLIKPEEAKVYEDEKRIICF

[4] = biological target: Melanin-concentrating hormone receptor 1 (Homo sapiens, UniProt Q99705); assay: Late-stage fluorescence-based counterscreen for antagonists of the G-protein coupled receptor 7 (GPR7): cell-based dose response assay to identify antagonists of the melanin-concentrating hormone receptor 1 (MCHR1). [Related pubchem assays (depositor defined):AID1861, AID1880, AID1952, AID2148, AID2251, AID2257, AID485339]; type: functional;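 note: stimulated with 30 nM MCH peptide agonist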
[5] = biological target: Peroxisome proliferator-activated receptor gamma/Nuclear receptor coactivator 2 (Homo sapiens, UniProt P37231); type: functional;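 note: agonist potency for raising coactivator recruitment to the receptor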
[6] = biological target: Peroxisome proliferator-activated receptor gamma/Nuclear receptor coactivator 3 (Homo sapiens, UniProt P37231); type: functional;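 note: agonist potency for raising coactivator recruitment to the receptor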
[7] = biological target: Peroxisome proliferator-activated receptor gamma/Nuclear receptor coactivator 1 (Homo sapiens, UniProt P37231); type: functional;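 note: agonist potency as compounds enhance coactivator SRC-1 recruitment to PPARgamma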
Trypsin = Trypsin (Sus scrofa, UniProt P00761); assay: porcine trypsin inhibitors, dose response, selectivity assay for Rce1 protease inhibitor project, biochemical, quenched peptide fluorescence, cherry-pick (AID 488789)
[8] = biological target: Luciferin 4-monooxygenase (Photinus pyralis, UniProt P08659); assay: firefly luciferase enzyme inhibitors, dose response, biochemical, luminescence (AID 1891)
[9] = biological target: Eukaryotic translation initiation factor 4E (Mus musculus, UniProt P63073); assay: eIF4E–eIF4G protein interaction inhibitors, dose response, biochemical, TR-FRET (AID 855); type: functional;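 note: potency for disrupting eIF4E binding to eIF4GI seen as loss of FRET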
[10] = Luminescence Cell-Based Dose Confirmation HTS to Identify Inhibitors of Platelet Dense Granule Release. [Related pubchem assays: 1663 (Primary HTS), 1678 (Summary of Project)]; type: functional
[11] = A cytotoxicity screen of small molecule inhibitors of the PhoP region in Salmonella typhi identified in the primary screen. [Related pubchem assays: 1850, 1864, 1985 ]; type: functional
[12] = biological target: T3, Short transient receptor potential channel 4 (Mus musculus, UniProt Q9QUQ5); assay: mouse TRPC4 channel inhibitors, dose response, cell-based, HEK293 TRPC4/mu-opioid, Fluo-4 calcium (AID 434942); type: functional;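 note: potency of inhibitors blocking the TRPC4 calcium response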
T3 sequence (Q9QUQ5 whole entry): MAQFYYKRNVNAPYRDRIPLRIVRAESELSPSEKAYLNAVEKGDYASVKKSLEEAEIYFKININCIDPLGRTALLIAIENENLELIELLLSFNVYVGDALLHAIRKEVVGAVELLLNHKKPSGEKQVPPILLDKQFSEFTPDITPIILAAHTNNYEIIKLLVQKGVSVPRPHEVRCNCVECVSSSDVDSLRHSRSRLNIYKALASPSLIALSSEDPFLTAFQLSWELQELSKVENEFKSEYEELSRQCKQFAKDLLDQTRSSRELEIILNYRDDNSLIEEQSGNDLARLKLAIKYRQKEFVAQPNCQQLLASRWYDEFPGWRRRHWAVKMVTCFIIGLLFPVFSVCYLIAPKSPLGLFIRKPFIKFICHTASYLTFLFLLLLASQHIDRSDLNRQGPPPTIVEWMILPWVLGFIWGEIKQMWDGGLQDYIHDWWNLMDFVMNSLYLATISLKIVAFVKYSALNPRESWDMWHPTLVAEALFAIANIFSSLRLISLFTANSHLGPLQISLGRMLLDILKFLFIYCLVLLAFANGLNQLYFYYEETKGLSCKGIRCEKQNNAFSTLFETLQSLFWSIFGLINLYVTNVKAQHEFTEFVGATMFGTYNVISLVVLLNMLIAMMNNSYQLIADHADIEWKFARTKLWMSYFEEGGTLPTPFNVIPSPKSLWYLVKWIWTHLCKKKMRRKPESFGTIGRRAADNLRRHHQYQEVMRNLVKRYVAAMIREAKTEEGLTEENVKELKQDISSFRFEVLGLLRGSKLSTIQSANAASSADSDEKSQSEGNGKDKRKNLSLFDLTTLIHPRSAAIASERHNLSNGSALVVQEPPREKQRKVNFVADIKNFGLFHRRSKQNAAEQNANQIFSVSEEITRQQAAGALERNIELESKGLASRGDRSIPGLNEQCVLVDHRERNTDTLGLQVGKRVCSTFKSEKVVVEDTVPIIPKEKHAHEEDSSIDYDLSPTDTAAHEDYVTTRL

HeLa = assay: HeLa cell cytotoxicity, dose response, cytotoxicity control, 24 h, cherry-picked samples (AID 504726); type: functional, cell-based; conditions: Homo sapiens;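 note: potency for cytotoxicity as loss of luminescence signal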
Cytochrome P450 1A2 = biological target: T4, Cytochrome P450 1A2 (Homo sapiens, UniProt P05177);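 note: PubChem cytochrome P450 panel assay, CYP1A2 panel member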
T4 sequence (P05177 whole entry): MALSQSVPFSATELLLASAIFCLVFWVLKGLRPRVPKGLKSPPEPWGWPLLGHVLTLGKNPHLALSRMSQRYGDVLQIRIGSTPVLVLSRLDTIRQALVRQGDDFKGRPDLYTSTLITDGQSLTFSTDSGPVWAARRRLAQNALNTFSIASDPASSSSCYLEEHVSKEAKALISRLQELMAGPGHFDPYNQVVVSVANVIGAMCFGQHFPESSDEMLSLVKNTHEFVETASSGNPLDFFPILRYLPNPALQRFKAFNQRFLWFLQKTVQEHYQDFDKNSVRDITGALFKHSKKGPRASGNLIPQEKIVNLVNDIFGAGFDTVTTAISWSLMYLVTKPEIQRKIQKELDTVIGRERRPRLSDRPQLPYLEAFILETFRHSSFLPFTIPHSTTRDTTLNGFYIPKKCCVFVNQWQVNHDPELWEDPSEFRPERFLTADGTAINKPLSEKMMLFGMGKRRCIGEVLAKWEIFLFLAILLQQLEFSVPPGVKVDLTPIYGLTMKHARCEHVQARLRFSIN

Cytochrome P450 3A4 = Cytochrome P450 3A4 (Homo sapiens, UniProt P08684); conditions: Potency;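 note: confirmatory qHTS run detecting inhibitors and substrates of CYP3A4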
Cytochrome P450 2C9 = Cytochrome P450 2C9 (Homo sapiens, UniProt P11712); conditions: Potency
[13] = biological target: DNA (cytosine-5)-methyltransferase 1 (Homo sapiens, UniProt P26358); assay: DNMT1 methyltransferase inhibitors, confirmation, biochemical, fluorescent molecular beacon (AID 602386); type: functional

Sequence of Acyl-homoserine lactone acylase PvdQ (Q9I194 24-193 limits assumed): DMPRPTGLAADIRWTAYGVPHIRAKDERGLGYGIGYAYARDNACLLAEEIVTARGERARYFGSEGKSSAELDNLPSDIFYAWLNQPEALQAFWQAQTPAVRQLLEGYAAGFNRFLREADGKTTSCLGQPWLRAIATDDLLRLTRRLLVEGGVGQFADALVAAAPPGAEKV
Sequence of Acyl-homoserine lactone acylase PvdQ (Q9I194 217-762 limits assumed): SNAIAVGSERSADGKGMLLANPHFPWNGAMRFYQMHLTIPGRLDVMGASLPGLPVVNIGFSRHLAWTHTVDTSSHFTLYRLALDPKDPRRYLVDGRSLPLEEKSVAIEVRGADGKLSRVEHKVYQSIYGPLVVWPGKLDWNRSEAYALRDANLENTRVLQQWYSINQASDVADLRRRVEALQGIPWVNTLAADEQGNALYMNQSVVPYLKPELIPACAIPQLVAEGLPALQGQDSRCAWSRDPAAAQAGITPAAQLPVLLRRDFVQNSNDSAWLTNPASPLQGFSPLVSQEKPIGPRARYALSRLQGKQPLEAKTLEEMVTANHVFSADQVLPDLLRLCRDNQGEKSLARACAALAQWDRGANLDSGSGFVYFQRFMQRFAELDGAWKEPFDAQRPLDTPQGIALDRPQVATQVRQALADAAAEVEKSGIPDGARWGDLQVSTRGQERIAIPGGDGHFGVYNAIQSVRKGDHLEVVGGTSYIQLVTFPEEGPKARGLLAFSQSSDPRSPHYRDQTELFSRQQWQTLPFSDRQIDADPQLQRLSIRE
Sequence of Eukaryotic translation initiation factor 4E (P63073 whole entry): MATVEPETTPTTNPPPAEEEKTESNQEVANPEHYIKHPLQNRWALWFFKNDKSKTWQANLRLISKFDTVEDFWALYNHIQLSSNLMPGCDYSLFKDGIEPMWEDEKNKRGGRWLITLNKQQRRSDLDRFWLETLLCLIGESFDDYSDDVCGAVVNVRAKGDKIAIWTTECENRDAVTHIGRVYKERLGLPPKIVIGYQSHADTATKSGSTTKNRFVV
Sequence of Melanin-concentrating hormone receptor 1 (Q99705 whole entry): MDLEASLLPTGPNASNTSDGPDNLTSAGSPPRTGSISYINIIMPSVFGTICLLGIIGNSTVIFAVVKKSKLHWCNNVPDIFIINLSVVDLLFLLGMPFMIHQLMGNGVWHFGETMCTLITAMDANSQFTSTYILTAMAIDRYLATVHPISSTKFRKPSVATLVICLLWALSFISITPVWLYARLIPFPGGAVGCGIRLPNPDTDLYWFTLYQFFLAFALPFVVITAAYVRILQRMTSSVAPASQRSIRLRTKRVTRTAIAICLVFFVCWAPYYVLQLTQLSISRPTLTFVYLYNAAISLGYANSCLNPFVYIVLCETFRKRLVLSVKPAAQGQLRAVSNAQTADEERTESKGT
Sequence of Cytochrome P450 3A4 (P08684 whole entry): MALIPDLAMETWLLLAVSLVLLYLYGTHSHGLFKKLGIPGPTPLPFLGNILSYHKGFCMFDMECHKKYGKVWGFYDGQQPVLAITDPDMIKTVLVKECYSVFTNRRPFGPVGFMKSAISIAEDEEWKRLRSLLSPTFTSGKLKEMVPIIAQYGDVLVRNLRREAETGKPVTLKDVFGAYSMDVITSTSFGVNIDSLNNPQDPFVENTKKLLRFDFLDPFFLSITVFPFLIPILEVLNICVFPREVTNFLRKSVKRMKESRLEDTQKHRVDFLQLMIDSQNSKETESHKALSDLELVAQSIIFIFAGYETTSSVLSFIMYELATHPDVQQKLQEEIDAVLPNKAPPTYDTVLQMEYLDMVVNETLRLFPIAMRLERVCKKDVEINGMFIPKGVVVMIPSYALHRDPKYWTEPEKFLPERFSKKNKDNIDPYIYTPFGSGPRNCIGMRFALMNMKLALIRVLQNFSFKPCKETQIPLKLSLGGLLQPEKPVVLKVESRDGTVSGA
Sequence of Peroxisome proliferator-activated receptor gamma/Nuclear receptor coactivator 2 (P37231 whole entry): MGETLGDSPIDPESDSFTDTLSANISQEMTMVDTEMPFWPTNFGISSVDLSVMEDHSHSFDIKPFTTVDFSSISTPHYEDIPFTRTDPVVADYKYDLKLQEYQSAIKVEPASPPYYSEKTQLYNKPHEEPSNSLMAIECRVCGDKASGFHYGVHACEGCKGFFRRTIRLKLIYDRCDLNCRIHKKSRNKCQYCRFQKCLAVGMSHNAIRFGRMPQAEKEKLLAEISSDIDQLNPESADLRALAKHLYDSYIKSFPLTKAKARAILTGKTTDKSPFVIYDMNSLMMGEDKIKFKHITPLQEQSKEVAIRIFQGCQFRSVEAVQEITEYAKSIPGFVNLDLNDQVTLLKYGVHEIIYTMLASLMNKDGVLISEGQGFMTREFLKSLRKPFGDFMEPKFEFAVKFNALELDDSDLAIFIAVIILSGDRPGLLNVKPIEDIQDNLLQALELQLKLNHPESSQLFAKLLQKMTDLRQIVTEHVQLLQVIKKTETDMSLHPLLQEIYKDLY
Sequence of Peroxisome proliferator-activated receptor gamma/Nuclear receptor coactivator 2 (Q15596 whole entry, further chain): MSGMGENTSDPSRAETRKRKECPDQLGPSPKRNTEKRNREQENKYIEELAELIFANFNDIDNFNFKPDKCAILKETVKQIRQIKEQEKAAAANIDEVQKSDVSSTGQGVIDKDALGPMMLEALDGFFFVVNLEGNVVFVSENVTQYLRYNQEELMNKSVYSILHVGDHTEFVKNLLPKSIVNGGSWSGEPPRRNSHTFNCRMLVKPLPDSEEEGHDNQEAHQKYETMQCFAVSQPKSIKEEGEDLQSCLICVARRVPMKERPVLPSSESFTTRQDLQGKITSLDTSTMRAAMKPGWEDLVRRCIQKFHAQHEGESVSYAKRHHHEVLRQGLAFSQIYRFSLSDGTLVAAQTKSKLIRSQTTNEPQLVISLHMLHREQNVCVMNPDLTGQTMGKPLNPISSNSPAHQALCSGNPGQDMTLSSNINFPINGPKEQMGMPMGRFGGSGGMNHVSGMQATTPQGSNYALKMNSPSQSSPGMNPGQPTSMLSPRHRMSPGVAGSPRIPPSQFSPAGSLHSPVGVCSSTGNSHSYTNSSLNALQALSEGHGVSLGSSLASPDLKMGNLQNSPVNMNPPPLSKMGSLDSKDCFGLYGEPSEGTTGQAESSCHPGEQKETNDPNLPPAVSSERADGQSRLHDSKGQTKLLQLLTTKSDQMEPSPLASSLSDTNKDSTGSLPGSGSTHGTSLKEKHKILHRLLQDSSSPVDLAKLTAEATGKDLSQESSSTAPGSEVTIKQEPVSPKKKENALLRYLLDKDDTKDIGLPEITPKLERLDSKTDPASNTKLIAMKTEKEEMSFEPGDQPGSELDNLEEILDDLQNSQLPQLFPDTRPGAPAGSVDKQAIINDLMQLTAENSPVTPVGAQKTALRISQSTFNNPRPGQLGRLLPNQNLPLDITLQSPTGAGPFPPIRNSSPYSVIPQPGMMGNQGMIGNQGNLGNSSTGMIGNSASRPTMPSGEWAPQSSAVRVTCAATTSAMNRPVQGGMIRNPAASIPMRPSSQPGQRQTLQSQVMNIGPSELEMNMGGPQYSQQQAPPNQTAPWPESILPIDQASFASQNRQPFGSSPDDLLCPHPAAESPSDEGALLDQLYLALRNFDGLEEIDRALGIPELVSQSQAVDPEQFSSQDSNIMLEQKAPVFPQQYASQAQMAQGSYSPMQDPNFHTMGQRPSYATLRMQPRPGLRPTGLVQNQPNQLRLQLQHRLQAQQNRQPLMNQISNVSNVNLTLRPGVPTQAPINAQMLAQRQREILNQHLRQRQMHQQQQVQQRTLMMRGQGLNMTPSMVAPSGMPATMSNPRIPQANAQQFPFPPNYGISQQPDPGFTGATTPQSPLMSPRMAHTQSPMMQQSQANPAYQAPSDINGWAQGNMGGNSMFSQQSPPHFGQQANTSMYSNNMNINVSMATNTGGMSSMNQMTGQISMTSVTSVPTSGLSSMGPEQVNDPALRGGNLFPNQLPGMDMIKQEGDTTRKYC
Sequence of Nucleotide-binding oligomerization domain-containing protein 2 (Q9HC29 whole entry, the tested form may be a part): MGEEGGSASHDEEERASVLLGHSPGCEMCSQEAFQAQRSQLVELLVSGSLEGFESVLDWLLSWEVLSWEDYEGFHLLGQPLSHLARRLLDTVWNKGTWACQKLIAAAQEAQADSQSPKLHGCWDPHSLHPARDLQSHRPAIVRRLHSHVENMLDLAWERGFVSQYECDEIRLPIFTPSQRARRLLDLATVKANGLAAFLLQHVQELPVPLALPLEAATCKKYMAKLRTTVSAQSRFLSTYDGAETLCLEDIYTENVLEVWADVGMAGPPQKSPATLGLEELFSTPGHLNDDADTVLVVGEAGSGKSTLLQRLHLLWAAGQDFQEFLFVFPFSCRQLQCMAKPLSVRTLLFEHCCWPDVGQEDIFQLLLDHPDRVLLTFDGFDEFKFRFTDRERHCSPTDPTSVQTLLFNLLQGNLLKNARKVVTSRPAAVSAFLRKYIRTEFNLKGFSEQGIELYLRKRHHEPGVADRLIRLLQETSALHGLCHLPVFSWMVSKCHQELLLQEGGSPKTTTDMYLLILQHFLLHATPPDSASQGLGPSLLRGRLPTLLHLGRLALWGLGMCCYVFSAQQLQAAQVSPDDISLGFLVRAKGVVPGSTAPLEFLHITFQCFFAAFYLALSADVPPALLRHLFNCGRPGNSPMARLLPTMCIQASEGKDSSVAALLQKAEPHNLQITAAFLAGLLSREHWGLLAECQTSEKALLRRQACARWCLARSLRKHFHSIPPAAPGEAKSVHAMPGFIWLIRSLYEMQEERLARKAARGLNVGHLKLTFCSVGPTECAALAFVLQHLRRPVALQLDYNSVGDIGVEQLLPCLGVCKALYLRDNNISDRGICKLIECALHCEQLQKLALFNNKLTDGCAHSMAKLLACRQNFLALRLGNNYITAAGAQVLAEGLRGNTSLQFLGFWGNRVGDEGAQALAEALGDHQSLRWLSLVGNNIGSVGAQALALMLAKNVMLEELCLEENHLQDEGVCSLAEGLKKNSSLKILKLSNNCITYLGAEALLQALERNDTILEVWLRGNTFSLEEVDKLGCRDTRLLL

Which IC50 (Bcl-2-like protein 10) does the source give for `COCCn1c(SCC(=O)Nc2ncc(Cl)c(C)c2Cl)nc2ccccc21` here?
The IC50 was 90.6 µM (inactive).

For `CCC(C)(C)NC(=O)c1cc([N+](=O)[O-])ccc1N1CCCCC1`, which AC50 [1] is on record?
Its AC50 is 13.7 µM (active).

For `CCOC(=O)c1c(NC(=O)c2cccs2)sc2c1CC(C)(C)OC2`, which IC50 [2] is on record?
The IC50 was > 20 µM (inactive).

What about the IC50 (HEK293) of the same compound?
Its IC50 is > 20 µM (inactive).

And the IC50 (Tumor necrosis factor)?
The IC50 was > 20 µM (inactive).

What about the IC50 [3] of the same compound?
Its IC50 is > 20 µM (inactive).

With `COc1ccc(Oc2c(Cl)cnn(-c3ccc4c(c3)CCCC4)c2=O)cc1` as the compound, how does the IC50 [4] read?
Its IC50 is 2.1 µM (active).

For `Cc1ccc(-c2cc(-c3ccccc3)c(C#N)c(Br)n2)cc1`, which EC50 [5] is on record?
The EC50 was 34.1 µM (not active).

And the EC50 [6]?
Its EC50 is 58.2 µM (not active).

And the EC50 [7]?
Its EC50 is 58.7 µM (not active).

And the AC50 (Trypsin)?
The AC50 was 11.9 µM (active).

Which EC50 [8] does the source give for `COc1ccc(-c2nc(-c3ccc(Br)cc3)no2)c(OC)c1` here?
The EC50 was > 112 µM (not active).

What about the IC50 [9] of the same compound?
Its IC50 is > 64 µM (inactive).

What about the EC50 [10] of the same compound?
The EC50 was > 112 µM (not active).

Which EC50 [11] does the source give for `COc1ccccc1Nc1cc(C(=O)NCc2cccnc2)c2ccccc2n1` here?
The EC50 was > 50 µM (active).

Which results are given for `Clc1ccc(CN2C3=NCCN3c3ccccc32)cc1`?
EC50 [12]: 1.5 µM (active); EC50 [11]: > 50 µM (active)

Which IC50 [4] does the source give for `CC(C)c1ccc(-n2ncc(Cl)c(NCc3ccccc3)c2=O)cc1` here?
The IC50 was 6.9 µM (active).

For `N#Cc1cn(Cc2ccccc2)c2ccccc12`, which AC50 [1] is on record?
Its AC50 is 45 µM (active).

For `Cc1cccc(N(Cc2ccccc2)C(=O)C2CCN(C(=O)c3ccccc3C)CC2)c1`, which AC50 (HeLa) is on record?
The AC50 was 135 µM (active).

Which AC50 (HeLa) does the source give for `NC(=S)N/N=C/c1ccc(-c2ccc([N+](=O)[O-])cc2)o1` here?
The AC50 was 84.6 µM (active).

Which results are given for `O=C(Oc1c(Br)cc(C(=S)N2CCOCC2)cc1Br)c1ccc(Cl)cc1`?
IC50 [9]: > 64 µM (inactive); AC50 (Cytochrome P450 1A2): 17.8 µM (inconclusive)

Which AC50 (Cytochrome P450 3A4) does the source give for `CCCCCC(=O)c1cc(CC(C(=O)OC)C(=O)OC)cc2cc(OC)c(OC)cc12` here?
The AC50 was 3.98 µM (inconclusive).

And the AC50 (Cytochrome P450 2C9)?
Its AC50 is 3.16 µM (inconclusive).

With `Cc1cccc(OCC(=O)Nc2ccc(N3CCCC3)cc2)c1C` as the compound, how does the IC50 [13] read?
The IC50 was > 99 µM (inactive).

And the IC50 (Bcl-2-like protein 10)?
Its IC50 is 96.2 µM (inactive).
